Data on four compounds can be found in ChEMBL document CHEMBL1201862, “PubChem BioAssay data set” (2004).

Molecules are shown by their SMILES.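 Cultured in 96-well plates, cells were exposed to test compound for 48 hours across five concentrations. Abbreviation: GI50, concentration required for 50% inhibition of growth.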 Calls of active or inactive are those of the source. No stated cut-off is given here; in the data, active = GI50 up to about 1.1 µM and inactive = higher. Square brackets hold non-standard residues; d marks the D form. Peptide text beside a SMILES is read from it. Ac5c = NC1(C(=O)O)CCCC1

What all share (experiment): DTP human tumour cell line panel, 48 h
Test [1] deals with MDA-N.
In test [2] the test system is Hs-578T.
The test system of test [3] is NCI/ADR-RES.
For test [4], the system named is Malme-3M.
Test [5] has as its system HOP-92.
The test system of test [6] is SK-MEL-28.
In test [7] the test system is SK-MEL-5.
In test [8] the test system is SW-620.
The test system of test [9] is SK-OV-3.
For test [10], the system named is HCT-116.
Test [11] relates to 786-0.
In test [12] the test system is M14.
The test system of test [13] is SNB-75.
Test [14] has as its system NCI-H226.
The test system of test [15] is COLO 205.
Test [16] relates to SF-268.
For test [17], the system named is A549.
For test [18], the system named is SNB-19.
Test [19] deals with HOP-62.
Test [20] deals with CAKI-1.

As usually defined, the GI50 is the concentration giving 50% growth inhibition. Turning to `N/C(=N/O)c1cn(C2OC(CO)C(O)C2O)c2ncnc(NO)c12` (stereo not given), the 50% growth inhibitory concentration (GI50) in test [1] was 0.0407 µM (active); in test [2], 1.01 µM (active); in [3] it was 0.203 µM (active); in test [4] it was 0.0373 µM (active); in [5], 1.03 µM (active); in test [6] it was 0.476 µM (active). The GI50 in test [7] was 0.151 µM (active); in test [8] it was 0.143 µM (active); in test [9], < 0.02 µM (active); in test [10] it was 0.0337 µM (active); in test [11], 0.0556 µM (active); in test [12] it was 0.126 µM (active). For the same compound, the GI50 was 0.222 µM (active) in test [13]; 0.34 µM (active) in test [14]; 0.0771 µM (active) in test [15]; 0.164 µM (active) in test [16]; 0.126 µM (active) in test [17]; 0.514 µM (active) in test [18]. Further, the GI50 in test [19] is 0.366 µM (active).
As to `Cc1c(CNc2ccc(C(=O)NC(CC(=O)O)C(=O)O)cc2)ccc2nc(N)nc(N)c12` (stereo not given), the concentration for 50% growth inhibition (GI50) in test [1] is < 0.01 µM (active); in [2] it was 684 µM (inactive); in test [3] it was < 0.01 µM (active); in [4] it was 31 µM (inactive); in [5], 1.1 µM (active); in test [6], 1.7 µM (inactive). In addition, the GI50 is 0.021 µM (active) in test [7]; < 0.01 µM (active) in test [8]; 0.146 µM (active) in [9]; < 0.01 µM (active) in test [10]; < 0.164 µM (active) in test [11]; < 0.215 µM (active) in test [12]. Moreover, the GI50 is 32.5 µM (inactive) in test [13]; > 100 µM (inactive) in [14]; > 9.42 µM (inactive) in test [15]; < 0.01 µM (active) in test [16]; < 0.01 µM (active) in [17]; < 0.0103 µM (active) in [19].
`NCC(=O)NC1(C(=O)O)CCCC1` (H-Gly-[Ac5c]-OH): the GI50 in test [1], in [2], in [3], in test [4], in test [5] and in test [6] was > 100 µM (inactive) each time. Moreover, the GI50 in test [7], in test [8], in [9], in [10], in test [11] and in test [12] was > 100 µM (inactive) each time. For the same compound, the GI50 in test [13], in test [20], in test [15], in test [16], in [17] and in test [18] was > 100 µM (inactive) each time. Moreover, in [19], the GI50 was > 100 µM (inactive).
With `CCOC(=O)c1c(-c2ccc(OC)cc2)c(C#N)c(=S)n(C2OC(CO)C(O)C(O)C2O)c1-c1ccccc1` (stereo not given), the GI50 was 33.2 µM (inactive) in [1]; 25.2 µM (inactive) in test [2]; > 100 µM (inactive) in [3]; 73.5 µM (inactive) in test [4]; 6.85 µM (inactive) in test [5]; 50.4 µM (inactive) in [6]. Besides, the GI50 is 13.3 µM (inactive) in test [7]; 36.1 µM (inactive) in test [8]; 90.6 µM (inactive) in test [9]; 27.2 µM (inactive) in [10]; 48.2 µM (inactive) in [11]; 31.9 µM (inactive) in [12]. Moreover, the GI50 in test [13] was 78.7 µM (inactive); in test [20] it was 50.7 µM (inactive); in [15], 49.3 µM (inactive); in [16], 68.7 µM (inactive); in test [17], > 100 µM (inactive); in [18], 85.1 µM (inactive). Besides, the GI50 in test [19] was 25.4 µM (inactive).
